In assay [1] the test system is locomotor activity. As to the kind of experiment: Locomotor sensitization to cocaine, i.p. OXR1 antagonist, open field. Type of assay: in vivo, Sprague-Dawley rats. Here is the method: To determine if orexin signaling plays a role in behavioral sensitization to cocaine, either the OXR1 antagonist SB 334867 (10 mg/kg, i.p.) or vehicle was injected 15 min prior to injecting cocaine (15 mg/kg, i.p) or saline (0.9%), and then the rats were placed in an open field chamber to measure locomotor activity for 1 hour each day for 5 days.
Therefore, to determine if expression of cocaine sensitization requires release of orexin acting at the OXR1 receptor, the OXR1 antagonist SB 334867 (10 mg/kg) was injected with cocaine (15 mg/kg) on day 6 into either cocaine-sensitized or saline-treated rats.
Male Sprague-Dawley Rats (P21-P30; Charles River, N.C.) were singly housed with food and water available ad libitum. A 12 hr light/dark cycle was used, with the lights on at 7:00 A.M. All cocaine injections and behavioral testing were performed during the light cycle for consecutive days. The four treatment groups consisted of rats given 5 daily i.p. injections of SB 334867 (10 mg/kg) 15 min preceding i.p. injection of cocaine (15 mg/kg) or saline (0.9% NaCl), or i.p. injections of vehicle (10% DMSO and 25% β-hydroxy cyclodextrin in saline) 15 min preceding i.p. injection of cocaine or saline. All animals were habituated to the photocell boxes (Med Associates, St. Albans, Vt.) for 2 hours prior to the start of the experiment. All animals were further habituated to the photocell boxes for 30 min prior to 60 min testing session. Locomotor activity was measured in 17″×17″ chambers lined with three 16-beam I/R arrays. A 50 ms scanning rate was used for measurement of beams broken. Distance traveled was measured using Open Field Activity Software (Med Associates, Inc) and analyzed for estimates of locomotion based on the movement of a given distance and resting delay (movement in a given period of time).

Assay [2] concerns cocaine reinforcement. As to the kind of experiment: Operant cocaine self-administration, progressive ratio schedule. Format: in vivo, rats. Conditions: 10 mg/kg i.p. on 4th day of progressive ratio, n=12. Here is the method: Rats were cannulated with an intra-venous cannula to their jugular vein. After one week to 10 days of recovery, the animals were trained to lever press for cocaine (0.5 mg/infusion, 2 second infusion) in Coulburn self-administration boxes. A tone and light above the active lever signalled during a press for cocaine and then a 20 second timeout followed the active lever press.
After 3-4 weeks of self-administration of cocaine (0.5 mg/infusion) ramping from fixed ratio of 1 lever press (FR1) to receive a reward to a stable fixed ratio of 5 lever presses to receive a reward (FR5) schedule, animals lever pressed for cocaine on a progressive ratio schedule for 4 days. On the second and third day, each animal received a vehicle injection (i.p.), and on the fourth day the animals received an injection (i.p.) of the OXR1 antagonist: SB334867, 10 mg/kg. As a control, orexin modulation of food self-administration was examined under the same paradigm. For food self-administration, animals were trained to an FR5 schedule for food pellets.

The test system of assay [3] is NMDA-induced current. Nature of the assay: Holding current change on bath-applied NMDA. Format: cell-based, rat. The settings on record: NMDA 50 μM 30 sec. Here is the method:
As a final test to determine at what time point after orexin treatment NMDARs were altered, NMDA (50 μM, 30 sec) was bath-applied, and the change in holding current was recorded. There was a significant increase in NMDA-induced current 15 min after orexin A (100 nM) application (orexin A: 344±27 pA, n=7; control: 245±43, n=9, p<0.05, FIG. 7H), but not after 3-4 hours (orexin A: 305±59, n=6; p>0.05, FIG. 7I).

For assay [4], the system named is AMPAR-mediated EPSCs in VTA dopamine neurons. As to the kind of experiment: Evoked AMPAR-mediated EPSCs recorded at −70 mV, VTA slices. Type of assay: cell-based, rat. Conditions: orexin A 100 nM. Here is the method:
Excitatory postsynaptic currents (EPSCs) were recorded from VTA neurons in rat midbrain slices. EPSCs were evoked while holding neurons in voltage clamp at +40 mV. Measurements were taken 20 ms after the stimulus artifact, a time point at which the glutamatergic EPSC is mediated purely by NMDARs.
All of the electrophysiological recordings were performed in rats ranging from P21 to P30. Briefly, rats were anesthetized with halothane and sacrificed. Horizontal sections of the VTA ([…]) were prepared with a vibratome (Leica, Nussloch, Germany). Slices were placed in a holding chamber and allowed to recover for at least 1 hour before being placed in the recording chamber and superfused with bicarbonate-buffered solution (ACSF) saturated with 95% O2/5% CO2 and containing (in mM): 119 NaCl, 1.6 KCl, 1.0 NaH2PO4, 1.3 MgCl2, 2.5 CaCl2, 26.2 NaHCO3 and 11 glucose (at 32-34° C.). Picrotoxin (100 μM) was added to block GABAA receptor-mediated inhibitory postsynaptic currents. Cells were visualized using infrared differential interference contrast video microscopy. Whole-cell voltage clamp recordings were made using an Axopatch 1D amplifier (Axon Instruments, Union City, Calif.). […] Series resistance (10-40 MΩ) and input resistance were monitored on-line with a 4-mV depolarizing step (50 ms) given just after every afferent stimulus. […]

Where no end group is shown, it is not given here.

As for `Cc1nc2ccc(NC(=O)Nc3ccnc4cccnc34)cc2o1.Cl` [SB 334867, 1-(2-methylbenzoxazol-6-yl)-3-[1,5]naphthyridin-4-yl urea hydrochloride], in assay [1] (10 mg/kg i.p. with saline, n=13), the baseline locomotor activity entry is “did not reduce”. For the same compound, the “development of sensitization to cocaine” value in assay [1] (10 mg/kg i.p., 5 days) is reported as “significantly blocked”. For the same compound, the “locomotor activity on day 6 (expression of cocaine sensitization)” value in assay [1] (10 mg/kg injected with cocaine on day 6, n=7 in each group) is “not significantly reduced”. The “distance traveled on day 5” value in assay [1] (SB 334867 10 mg/kg i.p. 15 min prior to cocaine 15 mg/kg i.p.) is 8504±2564 cm. The “locomotor activity on day 1” value in assay [1] (cocaine-treated rats given SB334867 10 mg/kg, n=11) is given as 3579±1079 cm. Further, in assay [2], the “breakpoint (cocaine)” value is on record as “reduced”, the “natural log of active lever presses for cocaine” value is recorded as “reduced”, the “raw active lever presses for cocaine” value is reported as “reduced” and the “total number of cocaine infusions” value was “decreased”.

As for “orexin A: neuropeptide synthesized in neurons of the LH; orexin receptor agonist selective for the OXR1 receptor (QPLPDCCRQKTCSCRLYELLHGAGNHAAGILTL; ends and bridges not checked; cysteine pairing not given here; UniProt O43612 34-66, looked up)”, the NMDA-induced current came out at 305±59 pA in assay [3] (3-4 hours after orexin A, n=6) and 344±27 pA in assay [3] (15 min after orexin A 100 nM, n=7). For the same compound, the “change of AMPAR-mediated EPSCs” value is given as “not changed” in assay [4] (n=8) and “does not increase” in assay [4] (n=8, listed as Orexin A).

For the origin of these results see patent publication US20060178307A1, “Modulation of NMDA receptor currents via orexin receptor and/or CRF receptor” (priority 2005, published 2006).
